Assay results published in patent US9752115B2, “Culture conditions for expansion of nephron progenitor cells” (Maine Medical Center Research Institute, priority 2014, dated 2017).
pIC50: −log10 of the molar value.

Experiments:
[1] = system: CITED1+ progenitors; settings: serum free medium; BIO 2 μM, CHIR99021 3 μM; cited from earlier work
[2] = system: hESC-derived nephron progenitors; assay: Subtraction of individual components from NPEM, hESC-derived progenitors; assay type: cell-based, human; settings: passage 3 progenitors, 3 days monolayer
Method: FIGS. 19A and 19B show nephron progenitor marker expression in human ES cell derived cultures grown in the absence of individual factors. In FIG. 19A, passage 3 progenitors were grown in NPEM in the absence of individual factors for 3 days in monolayer culture and immunostained for CITED1, SIX2, PAX2 and WT1. Antibody staining is shown in red and nuclear counterstaining with DAPI is shown in blue. In FIG. 19B, passage 3 progenitors were grown in NPEM in the absence of the indicated factors for 3 days in monolayer culture and immunostained for PAX2.
To understand if cellular growth in NPEM could be directly extrapolated to human cells, the above analysis was repeated with nephron progenitor cells derived from hESCs using the Takasato protocol (Takasato et al., 2014). CITED1+/SIX2+/PAX2+/WT1+ cells generated using this procedure lost expression of nephron progenitor markers following a single passage (FIG. 12A and FIG. 18A). […] When LDN was eliminated from the medium during the passage 2 culture, cells lost expression of PAX2 (FIG. 12C).

[3] = system: E17.5 CITED1+ progenitors; assay: Subtraction of individual factors from NPEM, mouse progenitors; assay type: cell-based; settings: for competence for tubulogenesis after subtraction of the factor: 7 days in aggregate culture after monolayer; for progenitor growth and state in the absence of the factor: factor subtracted from NPEM, 3 days monolayer
Method: Flow cytometry. CITED1+ progenitors were purified from GFP+ kidneys isolated from Cited1creERT2-EGFP×ICR mice and cultured as described in the text. GFP fluorescence intensity and cell counts were collected on a FACSCalibur (BD) and data were analyzed using FlowJo software.
Using flow cytometry on E17.5 CITED1+ progenitors derived from Cited1creERT2-EGFP mice, the requirement for each of the culture additives to maintain cells in the undifferentiated state was evaluated by subtracting them from the medium (FIGS. 10A and 10B).
In the absence of LDN, nuclear localization of pSMAD1/5 increased dramatically, as did transcription of the SMAD response gene Cv2 (FIGS. 10C and 10D). […] In addition to losing CITED1 expression, progenitors cultured in the absence of LDN lost expression of characteristic marker genes including […], PAX2, WT1 and […], which may have helped to explain their lack of competence (FIG. 10F and FIG. 14). CITED1+ progenitors isolated from E13.5 kidneys also required LDN to expand while maintaining their competence to differentiate (FIG. 15).

[4] = system: CITED1+ progenitors; assay: Aggregate culture tubulogenesis of purified CITED1+ progenitors; assay type: cell-based, mouse
Method: Cell culture. CITED1+ progenitors were purified from NZCs derived from E17.5 kidneys as previously described (Brown et al., 2011b; Brown et al., 2013). CITED1+ progenitors were cultured in monolayer on hESC qualified MatrigelTM coated plates (Corning). For human or mouse passage, cells were dissociated by incubation with TrypLE (Life Technologies) for 2 minutes at 37 C, washed and spun 2× at 300 g in autoMACs running buffer (Miltenyi) prior to resuspension in NPEM as described in Table 1. NPEM is changed every 2 days. Cells were differentiated in aggregate culture with CHIR (3 μM) in medium as previously described (Brown et al., 2013). To understand if these observations could be extrapolated to CITED1+ cells in culture, a series of experiments was performed upon nephron progenitor cells isolated from embryonic mouse kidneys. Using a previously developed isolation protocol, CITED1+ progenitors were harvested from embryonic mouse kidneys between the ages of E16.5 to P1 at near 100% purity, allowing interrogation of the CITED1+ population at multiple time points (FIGS. 7A and 7B) (Brown et al., 2013). However, CITED1 progenitor purity dropped to 75% by P2, likely due to the loss of CITED1+ progenitors that occurred during cessation (FIG. 7B and FIG. 6B).

[5] = target: T1, ALK7 (Homo sapiens, UniProt Q8NER5); settings: ALK7, not inhibited; cited from earlier work
T1 sequence (Q8NER5 21-493): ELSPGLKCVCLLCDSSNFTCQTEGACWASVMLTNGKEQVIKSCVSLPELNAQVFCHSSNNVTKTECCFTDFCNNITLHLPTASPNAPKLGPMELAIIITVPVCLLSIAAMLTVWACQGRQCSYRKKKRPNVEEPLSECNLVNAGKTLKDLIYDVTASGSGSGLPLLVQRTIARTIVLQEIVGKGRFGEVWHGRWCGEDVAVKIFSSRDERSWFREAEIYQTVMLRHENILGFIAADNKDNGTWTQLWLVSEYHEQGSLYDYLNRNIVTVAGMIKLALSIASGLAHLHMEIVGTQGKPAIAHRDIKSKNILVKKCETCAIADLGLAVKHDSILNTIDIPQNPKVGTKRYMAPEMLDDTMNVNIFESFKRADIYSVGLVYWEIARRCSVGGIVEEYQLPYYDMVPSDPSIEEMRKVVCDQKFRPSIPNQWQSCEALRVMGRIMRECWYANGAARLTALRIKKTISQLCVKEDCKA

[6] = system: SMAD1/5 phosphorylation; assay: pSMAD1/5 immunoblot of nephrogenic zone cells from LDN-treated newborn pups; assay type: in vivo, mouse; settings: immunoblot of isolated NZCs; 3 mg/kg intraperitoneal twice daily P0 until P2
Source text: (§1) Fluorescent imaging of GFP expression in cap mesenchymes “C” shown. […] Cap mesenchymes are outlined with dotted red lines. […] Percent remaining after LDN treatment quantified in graph. NZCs were isolated from 4 kidney pairs per treatment group and pooled. […] Representative image from 4 kidney pairs per group shown. […] Data represent the mean±SD of qPCR technical replicates from 5 (DMSO) and 6 (LDN) pooled kidney pairs.
(§2) Mouse strains and treatments. Animal care was in accordance with the National Research Council Guide for the Care and Use of Laboratory Animals and protocols were approved by the Institutional Animal Care and Use Committee of Maine Medical Center. CITED1 progenitors were derived from kidneys of Cited1creERT2-EGFP×ICR (Institute for Cancer Research mice) heterozygous mice. Cited1creERT2-EGFP and Six2cre-EGFP mouse strains are maintained on an FVB/NJ background (Boyle et al., 2008a; Kobayashi et al., 2008).
(§3) LDN was selected over other similar analogs because it is highly specific for SMAD1/5 and has been successfully used in vivo (Yu et al., 2008). […] To measure the differentiation status of nephron progenitor cells, Cited1creERT2-EGFP and Six2cre-EGFP mouse strains were used, which dynamically expressed fluorescent protein under the control of Cited1 and Six2 (Boyle et al., 2008a; Kobayashi et al., 2008). […]

[7] = system: cap mesenchyme; assay: Cited1/Six2 EGFP reporter expression in cap mesenchyme of treated pups; assay type: in vivo, mouse; settings: EGFP reporter mice, P2 and P3; untreated animals lost expression
Source text: as §1, §2, §3

SMILES	tubulogenesis in aggregate culture with WNT/β-catenin agonist [1]	expression of CITED1, PAX2, SIX2 and WT1 after subtraction of the component [2]	competence for tubulogenesis after subtraction of the factor [3]	progenitor growth and state in the absence of the factor [3]	tubulogenesis of P0 Cited1creERT2-EGFP progenitors ([4]; CHIR 3 μM, by day 4, GFP expression lost)	pIC50 [5]	reduction in SMAD1/5 phosphorylation compared to vehicle-treated controls [6]	expression of Cited1 and Six2 in cap mesenchyme [7]	Cited1-driven GFP expression ([4]; LDN 75 nM added to CHIR 3 μM)	effect on CHIR-induced tubulogenesis ([4]; LDN 75 nM added to CHIR 3 μM)
O=C1Nc2cc(Br)ccc2/C1=C1/Nc2ccccc2/C1=N\O [BIO]	robust tubulogenesis									
Cc1c[nH]c(-c2cnc(NCCNc3ccc(C#N)cn3)nc2-c2ccc(Cl)cc2Cl)n1 [CHIR99021]	robust tubulogenesis	critical dependence	still competent to undergo tubulogenesis	failed to expand but remained CITED1+	underwent tubulogenesis					
C[C@@H](N)[C@H]1CC[C@H](C(=O)Nc2ccncc2)CC1 [Y-27632]		critical dependence	still competent to undergo tubulogenesis	significant decrease in cell attachment						
c1ccc2c(-c3cnn4cc(-c5ccc(N6CCNCC6)cc5)cnc34)ccnc2c1 [LDN-193189]		critical dependence	unable to undergo differentiation	expanded but were largely CITED1 negative		< 6.30	greater than 95%	expression was maintained	maintained GFP expression	blocked tubulogenesis
